Eleven molecules from patent publication US20210070735A1, “RIP1 INHIBITORY COMPOUNDS AND METHODS FOR MAKING AND USING THE SAME” (Rigel Pharmaceuticals, Inc., priority 2019, published 2021) can be followed below.

Assay [1] deals with T1, RIPK1 (Homo sapiens, UniProt Q13546).
T1 sequence (Q13546 1-671): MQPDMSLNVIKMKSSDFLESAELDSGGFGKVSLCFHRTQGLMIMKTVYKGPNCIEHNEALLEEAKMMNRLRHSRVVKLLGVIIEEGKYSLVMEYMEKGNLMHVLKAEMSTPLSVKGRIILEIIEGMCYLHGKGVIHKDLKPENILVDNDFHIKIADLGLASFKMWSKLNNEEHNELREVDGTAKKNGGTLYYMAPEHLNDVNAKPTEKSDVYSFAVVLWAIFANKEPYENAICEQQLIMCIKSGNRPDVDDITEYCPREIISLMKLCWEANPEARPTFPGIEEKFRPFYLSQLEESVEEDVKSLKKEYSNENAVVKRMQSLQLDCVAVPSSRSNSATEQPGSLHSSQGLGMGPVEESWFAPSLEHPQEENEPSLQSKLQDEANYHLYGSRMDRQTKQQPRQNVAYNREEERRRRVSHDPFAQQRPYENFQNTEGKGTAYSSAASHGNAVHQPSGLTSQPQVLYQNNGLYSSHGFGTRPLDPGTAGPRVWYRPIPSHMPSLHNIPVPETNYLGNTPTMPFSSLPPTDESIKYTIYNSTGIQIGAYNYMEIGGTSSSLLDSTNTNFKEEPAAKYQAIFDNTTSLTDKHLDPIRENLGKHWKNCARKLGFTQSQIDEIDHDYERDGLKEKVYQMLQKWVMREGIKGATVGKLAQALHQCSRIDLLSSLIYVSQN
The experiment in a line: RIPK1 ADP-Glo biochemical kinase assay. The settings on record: 30 min at 30° C. Here is the method: The final reaction volume was 5.0 μl.
Adding 5 μl of ADP-Glo™ terminated the reaction.
For orientation: ADP-Glo turns the ADP formed in a reaction into a luminescent signal.

Assay [2] deals with T2, murine RIP1 (Mus musculus, UniProt Q60855).
T2 construct: U937 and L929 cells were obtained from the American Type Culture Collection; host or cells: L929
T2 sequence (Q60855 1-656): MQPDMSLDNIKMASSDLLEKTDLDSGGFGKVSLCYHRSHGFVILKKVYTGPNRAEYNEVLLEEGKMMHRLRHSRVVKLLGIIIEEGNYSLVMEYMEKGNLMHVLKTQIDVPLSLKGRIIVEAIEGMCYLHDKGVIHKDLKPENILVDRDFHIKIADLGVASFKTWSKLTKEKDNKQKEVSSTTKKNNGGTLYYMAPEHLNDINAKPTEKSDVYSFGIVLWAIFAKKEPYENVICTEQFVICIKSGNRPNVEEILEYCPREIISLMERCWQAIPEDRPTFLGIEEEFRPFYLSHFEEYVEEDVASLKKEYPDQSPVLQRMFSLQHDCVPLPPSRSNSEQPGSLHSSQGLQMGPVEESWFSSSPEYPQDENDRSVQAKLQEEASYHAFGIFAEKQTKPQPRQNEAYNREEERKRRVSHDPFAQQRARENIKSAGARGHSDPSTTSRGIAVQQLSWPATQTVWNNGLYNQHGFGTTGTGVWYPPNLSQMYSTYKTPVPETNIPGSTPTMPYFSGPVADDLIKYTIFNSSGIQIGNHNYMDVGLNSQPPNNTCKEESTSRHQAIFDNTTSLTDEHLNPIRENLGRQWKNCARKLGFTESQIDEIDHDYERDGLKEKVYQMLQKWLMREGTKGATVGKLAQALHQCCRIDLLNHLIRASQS
In words: L929 cell necroptosis assay (TNFa + zVAD, CellTiter-Glo). The format is cell-based. The protocol:
(§1) In this example, U937 and L929 cells were exposed to compounds of the present disclosure and a cell necroptosis assay was conducted to evaluate the compounds' activity against human RIP1 and murine RIP1.
(§2) U937 and L929 cells were obtained from the American Type Culture Collection (Manassa, Va., USA). Both cells were maintained in logarithmic growth phase in complete RPMI 1640 media (Sigma, ST Louis, Mo., USA) supplemented with 10% fetal bovine serum (Sigma, ST Louis, Mo., USA) at 37° C. with 5% CO2. For necroptosis assay, L929 cells were plated for 18 h in 100 µL/well medium at 10K cells/well in Costar 96-well black clear-bottom plates (Fisher Scientific, Hampton, N.H., USA); U937 cells were plated on the day of the assay in 50 µL/well medium containing 60 uM zVAD-fmk (Lonza, Basel, Switzerland) at 50K cells/well. Medium from L929 cells were removed from the 96-well plates and replaced with 50 µL/well new medium containing 40 uM zVAD-fmk. Each compound of the present disclosure evaluated in this example was serially diluted in DMSO from 2.5 mM in 4-fold dilutions, and then diluted 1:125 in complete medium. 50 µL/well 2× of the compound was then added to the cells in the plates. The cells were pre-incubated with the compound for 1 hour at 37° C. with 5% CO2 and before addition of 10 µL/well 11×TNFa (Peprotech, Rocky Hill, N.J., USA) to give a final concentration of 2 ng/mL for TNFa. The relative amount of necroptosis cells was determined by luminescent using a Wallac Victor2 Luminometer (PerkinElmer, Waltham, Mass., USA) and a CellTiter-Glo® Luminescent Cell Viability Reagent Assay (Promega, Madison, Wis., USA) added per manufacturer instructions after 18 hours of TNFa stimulation at 37° C. with 5% CO2.Results from this example are summarized in Table 2. This example establishes that embodiments of the compounds described herein have unexpectedly potent activity against human RIP1 and murine RIP1, which allows their assessment in in vivo mouse models of disease.
(In general: In ATP-based viability assays light output follows the ATP content of the culture.)

Assay [3] deals with T3, human RIP1 (Homo sapiens, UniProt Q13546).
T3 construct: U937 and L929 cells were obtained from the American Type Culture Collection; host or cells: U937
T3 sequence (Q13546 1-671): T1 sequence (Q13546 1-671)
The experiment in a line: U937 cell necroptosis assay (TNFa + zVAD, CellTiter-Glo). It counts as cell-based. To be noted: U937 Zvad TNF CTG Recovery, U937 cells, TNFa 2 ng/mL + zVAD-fmk, 18 hours. The protocol: as §1, §2

For orientation: IC50 means the point on the concentration scale where inhibition reaches its midpoint.

For `CN1C(=O)[C@@H](NC(=O)c2n[nH]c(Cc3ccccc3)n2)CCc2ccc(C#CC(C)(C)O)cc21` [Compound I-10, (S)-5-Benzyl-N-(8-(3-hydroxy-3-methylbut-1-yn-1-yl)-1-methyl-2-oxo-2,3,4,5-tetrahydro-1H-benzo[b]azepin-3-yl)-1H-1,2,4-triazole-3-carboxamide], the IC50 amounted to 0.0392 µM in assay [1], 0.0378 µM in assay [2] and 0.0017 µM in assay [3].

In the case of `CN1C(=O)[C@@H](NC(=O)c2n[nH]c(Cc3ccccc3)n2)CCc2ccc(N3CC4(CCOCC4)C3)cc21` [Compound I-17, (S)-5-Benzyl-N-(1-methyl-2-oxo-8-(7-oxa-2-azaspiro[3.5]nonan-2-yl)-2,3,4,5-tetrahydro-1H-benzo[b]azepin-3-yl)-1H-1,2,4-triazole-3-carboxamide], the IC50 in assay [1] came to 0.0366 µM; in assay [2], 0.229 µM; in assay [3] it was 0.0039 µM.

Regarding `CN1C(=O)[C@@H](NC(=O)c2n[nH]c(Cc3ccccc3)n2)CCc2ccc(C#Cc3cccnc3)cc21` [Compound I-18, (S)-5-Benzyl-N-(1-methyl-2-oxo-8-(pyridin-3-ylethynyl)-2,3,4,5-tetrahydro-1H-benzo[b]azepin-3-yl)-1H-1,2,4-triazole-3-carboxamide], the IC50 in assay [1] amounted to 0.0234 µM; in assay [2], 0.0059 µM; in assay [3], 0.0032 µM.

With `CN1C(=O)[C@@H](NC(=O)c2n[nH]c(Cc3ccccc3)n2)CCc2ccc(C#CC(C)(C)C)cc21` [Compound I-21, (S)-5-Benzyl-N-(8-(3,3-dimethylbut-1-yn-1-yl)-1-methyl-2-oxo-2,3,4,5-tetrahydro-1H-benzo[b]azepin-3-yl)-1H-1,2,4-triazole-3-carboxamide], the results for the IC50 in assay [1], in assay [2] and in assay [3] were 0.0624 µM, 0.0253 µM and 0.0134 µM, respectively.

Turning to `CN1C(=O)[C@@H](NC(=O)c2cc(Oc3ccccc3)ccn2)CCc2ccc(C#CC3(O)COC3)cc21` [Compound I-22, (S)—N-(8-((3-hydroxyoxetan-3-yl)ethynyl)-1-methyl-2-oxo-2,3,4,5-tetrahydro-1H-benzo[b]azepin-3-yl)-4-phenoxypicolinamide], the IC50 in assay [1] turned out to be 0.0342 µM; in assay [2], 0.0082 µM; in assay [3] it was 0.0008 µM.

On to `CN1C(=O)[C@@H](NC(=O)c2ccn(Cc3ccccc3)n2)CCc2ccc(N3CC4(CCOCC4)C3)cc21` [Compound I-32, (S)-1-Benzyl-N-(1-methyl-2-oxo-8-(7-oxa-2-azaspiro[3.5]nonan-2-yl)-2,3,4,5-tetrahydro-1H-benzo[b]azepin-3-yl)-1H-pyrazole-3-carboxamide], for which the IC50 amounted to 0.0388 µM in assay [1], 0.182 µM in assay [2] and 0.0027 µM in assay [3].

Take `CN1C(=O)[C@@H](NC(=O)c2ccn(Cc3ccccc3)n2)CCc2ccc(C#CC(C)(C)C)cc21` [Compound I-33, (S)-1-Benzyl-N-(8-(3,3-dimethylbut-1-yn-1-yl)-1-methyl-2-oxo-2,3,4,5-tetrahydro-1H-benzo[b]azepin-3-yl)-1H-pyrazole-3-carboxamide]: the IC50 was 0.0546 µM in assay [1], 0.03 µM in assay [2] and 0.0076 µM in assay [3].

Regarding `CN1C(=O)[C@@H](NC(=O)n2cc(Cc3ccc(F)cc3)cn2)CCc2ccc(C#CC3(O)CCOCC3)cc21` [Compound I-34, (S)-4-(4-Fluorobenzyl)-N-(8-((4-hydroxytetrahydro-2H-pyran-4-yl)ethynyl)-1-methyl-2-oxo-2,3,4,5-tetrahydro-1H-benzo[b]azepin-3-yl)-1H-pyrazole-1-carboxamide], the values for the IC50 in assay [1], in assay [2] and in assay [3] were 0.026 µM, 0.0059 µM and 0.0004 µM, respectively.

For the molecule `CC(C)(O)C#Cc1ccc2c(c1)NC(=O)[C@@H](NC(=O)c1cc(Oc3ccc(F)cc3)ccn1)CC2` [Compound I-35, (S)-4-(4-Fluorophenoxy)-N-(8-(3-hydroxy-3-methylbut-1-yn-1-yl)-2-oxo-2,3,4,5-tetrahydro-1H-benzo[b]azepin-3-yl)picolinamide], the IC50 in assay [1] was determined as 0.073 µM; in assay [2], 1.79 µM; in assay [3] it was 0.552 µM.

Turning to `[2H]C([2H])([2H])N1C(=O)[C@@H](NC(=O)n2cc(Cc3ccc(F)cc3)cn2)CCc2ccc(C#CC(C)(C)O)cc21` [Compound I-36, 4-(4-Fluorobenzyl)-N-(8-(3-hydroxy-3-methylbut-1-yn-1-yl)-1-(methyl-d)-2-oxo-2,3,4,5-tetrahydro-1H-benzo[b]azepin-3-yl)-1H-pyrazole-1-carboxamide], the figures for the IC50 in assay [1], in assay [2] and in assay [3] were 0.0392 µM, 0.0045 µM and 0.0005 µM, respectively.

For `CN1CCN(C(C)(C)C#Cc2ccc3c(c2)N(C)C(=O)[C@@H](NC(=O)c2cc(Oc4ccccc4)ccn2)CC3)CC1` [Compound I-37, (S)—N-(1-Methyl-8-(3-methyl-3-(4-methylpiperazin-1-yl)but-1-yn-1-yl)-2-oxo-2,3,4,5-tetrahydro-1H-benzo[b]azepin-3-yl)-4-phenoxypicolinamide], the IC50 in assay [1] was 0.0127 µM; in assay [2] it was 1.94 µM; in assay [3] it was 0.021 µM.
